Each block holds one molecule with its values, some of them ahead of it.
Legend:
Tom70 [1] = assay: Dot-blot assay of Tom70 with HRP-conjugated Hsp90 and Tom20 peptides in presence of unconjugated peptides; format: binding, human; conditions: 20 μM unconjugated peptide
Description: (§1) In subsequent experiments, non‐fluorescent peptides were used. […] Cell impermeable Hsp90 peptide served as a treatment control.
Figure 6 In vitro and in situ analysis of interactions of 10‐amino‐acid peptides corresponding to C termini of Hsp90 and Tom20 with Tom70. (A) Dot‐blot assay of interactions between Tom70 and HRP‐conjugated 10‐amino‐acid peptides corresponding to C termini of Hsp90 and Tom20 in the presence of 20 μM of unconjugated peptides. (B) Fluorescence imaging of HEK293 cells in the presence of 20 μM of fluorescein‐labeled Hsp90, R9–Hsp90, Tom20 and R9–Tom20 peptides. (C) Inhibition of Tom20–Tom70 and Hsp90–Tom70 interactions with R9–Hsp90 and R9–Tom20 in HEK293 cells measured by PLA. n = 3. Graphs were created and SD values were calculated using PRISM, version 7.02. *P‐value < 0.05 compared to control; comparisons are based on one‐way ANOVA. (D) Inhibition of Tom20–Tom70 and Hsp90–Tom70 interactions with R9–Hsp90 and R9–Tom20 in HEK293 cells measured by mammalian two‐hybrid assay. n = 3. Graphs were created and SD values were calculated using PRISM, version 7.02. *P‐value < 0.05 compared to control; comparisons are based on one‐way ANOVA.

Tom70 [2] = conditions: cited from earlier work
Description: First, we tested the ability of unlabeled Hsp90 and Tom20 peptides to compete with their HRP‐labeled analogues for binding to Tom70, the known partner for both Hsp90 and Tom20 proteins.

FKBP51 [3] = target: T1, FKBP51 (Homo sapiens, UniProt Q13451); assay: Dot-blot competition assay: HRP-conjugated peptide vs unlabeled peptide on immobilized FKBP51
T1 sequence (Q13451 1-457): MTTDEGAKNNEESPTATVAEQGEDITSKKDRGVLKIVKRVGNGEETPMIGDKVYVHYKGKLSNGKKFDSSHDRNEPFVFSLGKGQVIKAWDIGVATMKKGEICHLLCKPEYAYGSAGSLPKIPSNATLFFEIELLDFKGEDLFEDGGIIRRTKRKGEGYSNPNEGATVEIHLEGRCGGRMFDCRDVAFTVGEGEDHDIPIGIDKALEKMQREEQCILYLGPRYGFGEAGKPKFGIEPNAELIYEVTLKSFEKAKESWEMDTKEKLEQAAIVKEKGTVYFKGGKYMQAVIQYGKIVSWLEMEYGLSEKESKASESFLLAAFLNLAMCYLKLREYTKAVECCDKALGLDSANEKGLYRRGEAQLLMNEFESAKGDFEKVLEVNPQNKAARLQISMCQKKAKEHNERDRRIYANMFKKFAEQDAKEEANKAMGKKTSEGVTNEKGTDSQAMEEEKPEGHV
Description: (§4) Full‐length cDNA clones for respective proteins were obtained from IMAGE consortium (SourceBioScience, Nottingham, UK) and PCR amplified with forward and reverse primers (Table 1) containing overhangs with appropriate restriction sites and cloned into pGEX6 vectors (GE Healthcare, Uppsala, Sweden). Inserts were sequence verified, and the plasmids were transformed into BL21 Escherichia coli strain. Glutathione‐S‐transferase (GST) fusion proteins were purified from 1 L overnight culture after 2 h of induction with 1 mM IPTG. Cells were pelleted, resuspended in 1× PBS and sonicated 3 × 20 s on ice. EDTA and protease inhibitor cocktail were added to prevent proteolysis. The suspension was centrifuged for 30 min at 50 000 g to remove cell debris, and supernatant was loaded onto a 1 mL GSTrap™ 4B column (GE Healthcare). After column washing with 30 mL PBS, GST fusion proteins were eluted with 2.5 mL 10 mM glutathione in PBS. Eluate was passed through a PD‐10 column (GE Healthcare) to remove free glutathione. To prepare GST‐tag‐free proteins, we performed overnight cleavage at 4 °C with PreScission protease (GE Healthcare) followed by passage through a GSTrap column to remove free GST protein. Average yield from 1 L starting culture was 1–5 mg of purified proteins. Protein‐containing fractions were collected, checked with SDS/PAGE and kept at −20 °C.
(§5) Peptides were dissolved in HEPES‐KOH buffer pH 7.2 at concentration of 1 mg·mL^−1 and incubated with equimolar amounts of activated horseradish peroxidase (HRP) (Lightning‐link® HRP labeling kit cat. 701‐004, from Innova Biosciences) for 5 min. Reaction was quenched with 0.1 M Tris/HCl, pH 7.5 for 10 min and the products were passed through PD‐10 columns (GE Healthcare). Dot‐blot experiments were performed using GST‐tag‐free proteins applied to the nitrocellulose membrane. After blocking of membrane with 3% BSA in TBS‐T buffer for 1 h and subsequent wash with TBS‐T, HRP‐conjugated peptides (1 × 500 times dilution) were applied and incubated for 1 h. After subsequent washing (3 × 10 min, TBS‐T), membrane was dried and signals were quantified using a digital Fujifilm LAS3000 imager and LAS3000 software. In competition experiments, increasing concentrations of unlabeled peptides were co‐incubated with peptide–HRP conjugates.
(§6) Each peptide was separately coupled to HRP.

AIP = target: T2, AIP (Homo sapiens, UniProt O00170); assay: Dot-blot competition assay: HRP-conjugated peptide vs unlabeled peptide on nitrocellulose-immobilized AIP
T2 sequence (O00170 1-330): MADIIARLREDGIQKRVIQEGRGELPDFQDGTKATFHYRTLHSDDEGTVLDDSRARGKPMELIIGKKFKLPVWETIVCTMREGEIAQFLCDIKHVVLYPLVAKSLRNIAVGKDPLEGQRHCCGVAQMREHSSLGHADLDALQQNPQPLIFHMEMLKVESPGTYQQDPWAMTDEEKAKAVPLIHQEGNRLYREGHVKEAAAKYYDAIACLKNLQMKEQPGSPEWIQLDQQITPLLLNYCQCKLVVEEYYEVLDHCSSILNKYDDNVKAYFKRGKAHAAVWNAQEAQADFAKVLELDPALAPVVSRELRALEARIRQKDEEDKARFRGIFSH
Description: as §4, §5, §6

FKBP51 [4] = conditions: cited from earlier work
Description: Here in this study, we systematically searched the human protein database (https://www.ncbi.nlm.nih.gov/protein/) for the protein products containing Hsp70/Hsp90‐like sequence signatures at their C terminus. Sev ...

HEK293 cells = conditions: N-terminally fluorescein-labeled peptides, 20 μM, fluorescence imaging
Description: (§2) P < 0.05 was considered to be statistically significant. Data are presented as mean ± SEM.

Tom20–Tom70 interaction [5] = assay: Proximity ligation assay (PLA) of Tom20–Tom70 interaction in HEK293 cells; format: cell-based, human; conditions: non-fluorescent peptide, n = 3
Description: as §2, §1

Hsp90–Tom70 interaction [6] = assay: Proximity ligation assay (PLA) of Hsp90–Tom70 interaction in HEK293 cells; format: cell-based, human; conditions: non-fluorescent peptide, n = 3
Description: as §2, §1

Tom20–Tom70 interaction [7] = assay: Mammalian two-hybrid assay (luciferase) of Tom20–Tom70 interaction in HEK293 cells; format: cell-based, human; conditions: peptide 20 μM added 4 h after transfection, 48 h, n = 3
Description: (§3) Tom70 sequence was PCR amplified and subcloned into pACT vector of CheckMate™ mammalian two‐hybrid system (Promega, Madison, WI, USA) using SalI/NotI restriction sites, and Hsp90 and Tom20 DNA sequences were PCR amplified and subcloned into pBIND vector using SalI/NotI restriction sites. Tom70‐pACT/Hsp90‐pBIND and Tom70‐pACT/Tom20‐pBIND were co‐transfected with pLuc plasmid in a 1 : 1 : 1 molar ratio into HEK293 cells using Lipofectamine 3000 transfection reagent (Invitrogen, Carlsbad, CA, USA) according to the manufacturer's protocol. Triplicate samples in 96‐well cell culture plates Corning (Tewskbury, MA, USA) were used in each experiment. Hsp90, R9–Hsp90, Tom20 and R9–Tom20 peptides at concentration 20 μM were added 4 h after transfection. HEK293 cells were cultivated for 48 h, washed twice with PBS and lysed with PBS containing 1% Triton X‐100. Luciferase expression was detected using a luciferase assay kit from BioThema (Huddinge, Sweden) on a 96‐well plate reader from Perkin Elmer (Upplands Väsby, Stockholm, Sweden).
as §1

Hsp90–Tom70 interaction [8] = assay: Mammalian two-hybrid assay (luciferase) of Hsp90–Tom70 interaction in HEK293 cells; format: cell-based, human; conditions: peptide 20 μM added 4 h after transfection, 48 h, n = 3
Description: as §3, §1

GST–AIP = target: T3, GST–AIP (human, UniProt O00170 1-330); assay: pull-down; GST–AIP and GST–FKBP51 as bait, purified full-length and truncated proteins as prey; bound proteins probed by western blot with their antibodies; conditions: both partners purified
T3 construct: bait of the GST pull-down; source: E. coli BL21, purified (GSTrap 4B, PD-10)
T3 sequence (looked up): T2 sequence (O00170 1-330)

GST–FKBP51 = target: T4, GST–FKBP51 (human, UniProt Q13451 1-457); assay: as above; conditions: both partners purified
T4 construct: bait of the GST pull-down; source: E. coli BL21, purified (GSTrap 4B, PD-10)
T4 sequence (looked up): T1 sequence (Q13451 1-457)

competition with HRP-conjugated Hsp90 peptide for Tom70 binding (Tom70 [1]): effectively competes
competition with HRP-conjugated Tom20 peptide for Tom70 binding (Tom70 [1]): effectively competes
IC50 (FKBP51 [3]): 18.9 ± 3 µM
IC50 (AIP): 17.8 ± 1.35 µM
Molecule: CSCC[C@H](NC(=O)[C@H](CCCNC(=N)N)NC(=O)[C@H](CO)NC(=O)[C@H](C)NC(=O)[C@H](CC(=O)O)NC(=O)[C@@H](N)CCC(=O)O)C(=O)N[C@@H](CCC(=O)O)C(=O)N[C@@H](CCC(=O)O)C(=O)N[C@H](C(=O)N[C@@H](CC(=O)O)C(=O)O)C(C)C [Hsp90β]
affinity for Tom70 relative to 10-mer Tom20 peptide (Tom70 [2]): more than 10 fold

signal of HRP-conjugated peptide in dot-blot binding assay (FKBP51 [3]; HRP-conjugated peptide on immobilized dcTPR proteins): did not produce any signal
Molecule: H-DDDDDDDDDD-OH [poly‐D, reference compound]
interaction with FKBP51 (FKBP51 [4]): no interaction was observed

Molecule: H-RRRRRRRRREDASRMEEVD-OH [R9–Hsp90, cell‐permeant analog of the Hsp90 peptide containing a nine‐arginine N‐terminal tag]
fluorescein staining of HEK293 cells (peptide translocation into the cells) (HEK293 cells): resulted in HEK293 cells staining
decrease of Tom20–Tom70 interaction signal (PLA) (Tom20–Tom70 interaction [5]): approximately 50%
decrease of Hsp90–Tom70 interaction signal (PLA) (Hsp90–Tom70 interaction [6]): approximately 50%
inhibition of Tom20–Tom70 interaction (mammalian two-hybrid, luciferase) (Tom20–Tom70 interaction [7]): sensitive
inhibition of Hsp90–Tom70 interaction (mammalian two-hybrid, luciferase) (Hsp90–Tom70 interaction [8]): inhibited

binding result (GST–AIP): binds
binding result (GST–FKBP51): binds
B1: Bcl-G (natural protein, human, UniProt Q9BZR8 1-327, looked up)
chain: MCSTSGCDLEEIPLDDDDLNTIEFKILAYYTRHHVFKSTPALFSPKLLRTRSLSQRGLGNCSANESWTEVSWPCRNSQSSEKAINLGKKKSSWKAFFGVVEKEDSQSTPAKVSAQGQRTLEYQDSHSQQWSRCLSNVEQCLEHEAVDPKVISIANRVAEIVYSWPPPQATQAGGFKSKEIFVTEGLSFQLQGHVPVASSSKKDEEEQILAKIVELLKYSGDQLERKLKKDKALMGHFQDGLSYSVFKTITDQVLMGVDPRGESEVKAQGFKAALVIDVTAKLTAIDNHPMNRVLGFGTKYLKENFSPWIQQHGGWEKILGISHEEVD
notes: Bcl-2-like protein 14 (Bcl-G), human, full-length cDNA clone; also called Bcl-2-like protein 14; source: E. coli BL21, purified as GST fusion (GSTrap), GST removed with PreScission protease

— article PMC6212638, “In silico identification and biochemical characterization of the human dicarboxylate clamp TPR protein interaction network” (FEBS Open Bio, 2018)
